Measurements taken from PubChem BioAssay AID1845204 (Molecular Pharmacology Branch, DTP, NCI, 2023).
Values joined by “and” are separate entries in the source; they are usually repeats but may differ in a detail not shown here. Equal values may be shown once.

Tested on: HSSY-II tumor spheroid viability
Test: Anticancer human tumor HSSY-II cell line growth inhibition;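 also: spheroids exposed to compounds for seven days before reading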;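 as to viability, T/C: percent of DMSO vehicle control viability so 100% = untreated level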
Settings: spheroids with HUVEC and MSC; for viability, T/C: stronger effect = lower value
Excerpt: Multicellular complex tumor spheroid response to DNA repair inhibitors in combination with DNA-damaging drugs
This study explores the anticancer activities of DNA-damaging drugs and inhibitors of DNA damage repair, both as single agents and in combinations. Complex tumor spheroids comprised of malignant cells, endothelial cells and mesenchymal stem cells served as an in vitro model for human solid tumors. This model system incorporates physiologically relevant features and patient-derived or established malignant cell lines with clinically relevant genetic alterations from many tumor types. Twenty-six patient-derived or established malignant cell lines were evaluated representing sarcoma, melanoma, small cell lung cancer (SCLC), non-small cell lung cancer (NSCLC), as well as bladder, ovarian and pancreatic cancers. The concentration ranges selected for each drug and investigational agent were based upon clinically achievable concentrations if the clinical Cmax of the agent was known.
Compounds. The drugs and compounds olaparib (NSC753686), talazoparib (NSC767125), berzosertib (NSC777718), elimusertib (NSC800525), nedisertib (NSC802822), VX-984 (NSC792969), AZD-1390 (NSC803789), temozolomide (NSC362856), topotecan (NSC609699), trabectedin (NSC813783), staurosporine (NSC755774), and gemcitabine (NSC613327) were obtained from the National Cancer Institute (NCI) Developmental Therapeutics Program Chemical Repository. The FDA-approved anticancer drug set is available from the Developmental Therapeutics Program at https://dtp.cancer.gov/organization/dscb/obtaining/available_plates.htm. […] The stock solutions were prepared in dimethyl sulfoxide (DMSO, Sigma-Aldrich, St. Louis, MO, cat. D2650) at 400-fold the tested concentration and stored at -70 degrees C. Prior to their use, the stock solutions were diluted in fresh medium and the final DMSO concentration in the assay was 0.25% (v/v). All drugs and investigational agents were tested over a range starting from a high concentration at or near the clinical Cmax and decreasing in half-log increments. If the clinical Cmax for an agent had not been determined, the highest concentration tested was 10 microM.
Cell Lines. The patient-derived cancer cell (PDC) lines: 156681-154-R-J1-PDC, 283228-195-R-J1-PDC, 287954-098-R-J1-PDC, 292921-168-R-J2-PDC, 349418-098-R-PDC, 425362-245-T-J1-PDC, 556581-035-R-J1-PDC, and BL0293-F563-PDC were received from the NCI Patient-Derived Models Repository (PDMR, https://pdmr.cancer.gov). The established cell lines HS-SY-2 (RRID:CVCL_8719), MPNST, and SYO-1 (RRID:CVCL_7146) were obtained from the Sloan Kettering Institute. The alveolar soft parts sarcoma cell line ASPS-1 (RRID:CVCL_S738) was established at the NCI and grown from internal seed stocks. The following established cell lines were purchased from the American Type Culture Collection (ATCC, Manassas, VA): G-401 (ATCC, cat. CRL-1441, RRID:CVCL_0270), SW982 (ATCC, cat. HTB-93, RRID:CVCL_1734), VA-ES-BJ (ATCC, cat. CRL-2138, RRID:CVCL_1785), NCI-H719 (ATCC, cat. CRL-5837, RRID:CVCL_1582), NCI-H196 (ATCC, cat. CRL-5823, RRID:CVCL_1509), NCI-H841 (ATCC, cat. CRL-5845, RRID:CVCL_1595), NCI-H1618 (ATCC, cat. CRL-5879, RRID:CVCL_1480), NCI-H1876 (ATCC, cat. CRL-5902, RRID:CVCL_1503), DMS 114 (ATCC, cat. CRL-2066; RRID:CVCL_1174), NCI-H211 (ATCC, cat. CRL-5824; RRID:CVCL_1529), and SW 1271 (ATCC, cat. CRL-2177, RRID:CVCL_1716). The small cell lung cancer cell line COR-L88 was purchased from Sigma-Aldrich (cat. 92031917-1VL, RRID:CVCL_1141). The non-small cell lung cancer cell lines NCI-H226 (RRID:CVCL_1544) and NCI-H322M (RRID:CVCL_1557) were established at the NCI and grown from internal seed stocks. Pooled donor human umbilical vein endothelial cells (HUVEC, Lonza, cat. CC-2519) and human mesenchymal stem cells (hMSC, Lonza, cat. PT-2501) were purchased from Lonza (Walkersville, MD).
Cell Culture. All cells were maintained in an incubator at 37 degrees C and 5% CO2 with 95% humidity. […]

[1] = compound alone, run of 12/02/2019
[2] = compound alone, run of 12/12/2019

| SMILES | viability, T/C (compound 0.0316 µM) | viability, T/C (compound 0.1 µM) | viability, T/C (compound 0.316 µM) | viability, T/C (compound 1 µM) | viability, T/C (compound 3.16 µM) | viability, T/C (compound 10 µM) | IC50 (curve of compound) | viability, T/C (compound 0.03 µM) | viability, T/C (compound 0.0949 µM) | viability, T/C (compound 0.3 µM) | viability, T/C (compound 0.949 µM) | viability, T/C (compound 3 µM) | further results |
| --- | --- | --- | --- | --- | --- | --- | --- | --- | --- | --- | --- | --- | --- |
| CC(C)n1c(=O)n(C)c2cnc3cc(F)c(-c4ccc(OCCCN5CCCCC5)nc4)cc3c21 | 139% and 106% and 97.2% | 129% and 102% and 101% | 118% and 97.2% and 96.5% | 126% and 86.8% and 85.9% | 113% and 76.4% and 76.1% | 53.6% and 35.9% and 32.6% | > 10 µM and 6.62 µM and 6.22 µM | – | – | – | – | – | – |
| CC1COCCN1c1cc(-c2ccnn2C)c2ccnc(-c3ccn[nH]3)c2n1 (stereo not given) | 13.6% and 27.8% and 22.3% | 6.39% and 6.26% and 6.5% | 4.82% and 2.71% and 2.97% | 4.16% and 1.96% and 2.24% | 4.41% and 2.11% and 2.4% | 6.25% and 2.76% and 2.66% | < 0.0316 µM | – | – | – | – | – | – |
| CC[C@@]1(O)C(=O)OCc2c1cc1n(c2=O)Cc2cc3c(CN(C)C)c(O)ccc3nc2-1 | – | – | – | – | – | – | – | 9.85% [middle of 10 runs] | 8.03% [middle of 9 runs] | 5.25% [middle of 10 runs] | – | – | viability, T/C (compound 0.003 µM): 85.6% [middle of 10 runs]; IC50 [1]: 8.2 nM [middle of 5 runs]; IC50 [2]: 11.6 nM [middle of 5 runs] |
| CNCc1ccc(-c2cc(-c3nc(-c4ccc(S(=O)(=O)C(C)C)cc4)cnc3N)on2)cc1 | – | – | – | – | – | – | 0.0458 µM and 0.0473 µM and 0.0424 µM | 74.1% and 79.3% and 68.2% | 8.25% and 5.12% and 7.65% | 4.73% and 4.15% and 5.89% | 1.97% and 2.75% and 1.7% | 0.23% (2×) and 0.46% | viability, T/C (compound 0.00949 µM): 97.3% and 98% and 97.5% |
| COc1cc(C)[nH]c(=O)c1CN1CCc2c(Cl)cc(C(OC)C3COC3)c(Cl)c2C1=O (stereo not given) | 79.4% and 99.8% and 97.9% | 115% and 84.8% and 86.5% | 99.7% and 76.2% and 78.9% | 93.8% and 63.5% and 68.3% | 94.8% and 60.8% and 62.7% | 91.7% and 62.6% and 64.4% | > 10 µM | – | – | – | – | – | – |
| COc1cc2c(cc1O)CCNC21CSC2c3c(OC(C)=O)c(C)c4c(c3C(COC1=O)N1C(O)C3Cc5cc(C)c(OC)c(O)c5C(C21)N3C)OCO4 (stereo not given) | – | – | – | – | – | – | – | – | – | – | – | – | viability, T/C (compound 0.0003 µM): 16.7% [middle of 10 runs]; viability, T/C (compound 0.000949 µM): 3.25% [middle of 9 runs]; viability, T/C (compound 0.003 µM): 0.2% [middle of 7 runs]; IC50 [2]: 0.187 nM [middle of 10 runs] |
| COc1ccc([C@@H](O)c2cc(-c3ncnc4cc(N5CCOCC5)ccc34)c(F)cc2Cl)nn1 | 99% (2×) and 100% | 108% and 97.5% and 98% | 98.5% and 89.3% and 86.9% | 67.9% and 60.5% and 66.9% | 40.8% and 40.2% and 43.4% | 15.2% and 20.4% and 21.2% | 2.1 µM and 1.83 µM and 2.26 µM | – | – | – | – | – | – |
| Cc1cc(C)c(CNC(=O)c2cc(-c3ccc(CN4CCOCC4)cc3)cc3c2cnn3C2CCCC2)c(=O)[nH]1 | 109% and 94.6% and 92.3% | 107% and 99.1% and 103% | 107% and 106% and 102% | 107% and 102% and 91.9% | 104% and 95.3% and 96.5% | 64.3% and 69.4% and 77.4% | > 10 µM | – | – | – | – | – | – |
| Cc1sc2c(c1C)C(c1ccc(Cl)cc1)=NC(CC(=O)Nc1ccc(O)cc1)c1nnc(C)n1-2 (stereo not given) | – | – | – | – | – | – | 0.173 µM and 0.161 µM and 0.146 µM | 91.5% and 82% and 79.4% | 71.5% and 60.6% and 61.9% | 30.2% and 39.3% and 30.7% | 18.2% and 16.5% and 16.8% | 11.9% and 11.7% and 9.97% | viability, T/C (compound 0.00949 µM): 103% and 96.2% and 86.5% |
| Cn1ncnc1[C@H]1c2n[nH]c(=O)c3cc(F)cc(c23)N[C@@H]1c1ccc(F)cc1 | – | – | – | – | – | – | 0.0605 µM and 0.129 µM and 0.0704 µM | 64.8% and 81.5% and 64.3% | 40.7% and 58.8% and 46.4% | 15.3% and 25.6% and 20.6% | 6.4% and 9.46% and 9.61% | 4.87% and 8.07% and 6.62% | viability, T/C (compound 0.00949 µM): 76.5% and 87.8% and 78.8% |
| Cn1nnc2c(C(N)=O)ncn2c1=O | – | – | – | 100% [middle of 10 runs] | 104% [middle of 10 runs] | 102% [middle of 10 runs] | – | – | – | – | – | – | viability, T/C (compound 31.6 µM): 103% [middle of 10 runs]; viability, T/C (compound 100 µM): 93.4% [middle of 10 runs]; IC50 [1]: > 100 µM |
| O=C(c1cc(Cc2n[nH]c(=O)c3ccccc23)ccc1F)N1CCN(C(=O)C2CC2)CC1 | – | – | – | – | – | – | 6.16 µM and 4.28 µM and 4.38 µM | – | 99.1% and 104% and 93.2% | 91.7% and 90.6% and 98.3% | 82.3% and 86.8% and 90.7% | 70.6% and 67.4% and 65.8% | viability, T/C (compound 9.49 µM): 30.7% and 11.5% and 17.9% |
| [2H]c1nc(C)nc([2H])c1-c1cc(NC[C@@H](C)c2cccc3c(C(=O)NC)ccnc23)ncn1 | 95.9% and 98.9% and 105% | 98.9% and 99.4% and 98.4% | 95.8% and 98.1% and 101% | 99.1% and 97.4% and 99.5% | 99% and 92.2% and 97% | 93.9% and 84.6% and 93% | > 10 µM | – | – | – | – | – | – |
